According to paper PMC6527222 (PLoS ONE, 2019):

What was measured:
[1] = tested on: JB6 P+ cells; test: Anchorage-independent growth assay in soft agar (EGF-induced JB6 P+ colony formation); format: cell-based, mouse
Protocol: Ten ng/mL EGF was used to promote the anchorage-independent growth of JB6 cells. […] Plates were incubated at 37°C, 5% CO2 for 14 days. Colonies with greater than ten cells were counted manually under a microscope. […] Normalization allowed for comparison of data over a range of JB6 P+ cell cultures, passages, and experimental time for the shRNA studies, as well as control for variation in the EGF response, and importantly allowed for a direct comparison to all concentration-response experiments including the toxicity assays. […] All group sizes were determined via previous studies to provide statistically meaningful data. In the soft agar assays, key results were repeated with different JB6 P+ cells to confirm the results. Similarly, the shRNA studies were conducted with three independent concentration-response curves with different JB6 P+ cell stocks. […] For two sample comparisons a t-test was utilized, and when comparing multiple samples a One-, Two-, or Three-Factor ANOVA followed by Tukey-Kramer post hoc test was utilized depending on the data. For all tests, statistical difference was donated when p < 0.05. […] The I[…]*PSD is expressed in x-axis units (log [M]) as is an IC50 and it represents the first concentration where it is expected to observe a statistical decrease in the measured signal. […] Using the formula provided by GraphPad Prism or a straight line for the point-to-point graphs, the X-axis value for point Y was determined. The error is ascribed to this measurement via adding and subtracting the pooled standard deviation (PSD) to/from point Y generating point Y ± PSD. The two new points were then transformed to the X-axis units as was done for point Y creating an asymmetric error in sigmoidal plots. When the error was asymmetric, the larger error value was chosen to err on the conservative side. See S1 Fig for a pictoral explination of the method. The data is presented as I[…]*PSD ± error.

[2] = tested on: JB6 P+ cells; test: SRB cytotoxicity assay; format: cell-based, mouse; conditions: 72 hr; NT = no toxicity at any concentration tested
Protocol: 96-well plates were seeded with 3x10^3 JB6 P+ cells per well and allowed to attach overnight. […] Cell viability was determined using Sulforhodamine B (SRB) assay from Sigma-Aldrich according to the manufacturer’s protocol. Cellular protein content was measured using a Bio-Tek μQuant plate reader with KCJunior software.
Concentration-response curves were normalized so that the EGF positive control on each 96-well plate was set to 100% and the control wells on each plate were set to 0%. Toxicity assays (SRB and MTS) were normalized so that the control on each plate represented 100% viability. Normalization allowed for comparison of data over a range of JB6 P+ cell cultures, passages, and experimental time for the shRNA studies, as well as control for variation in the EGF response, and importantly allowed for a direct comparison to all concentration-response experiments including the toxicity assays. […] All group sizes were determined via previous studies to provide statistically meaningful data. In the soft agar assays, key results were repeated with different JB6 P+ cells to confirm the results. Similarly, the shRNA studies were conducted with three independent concentration-response curves with different JB6 P+ cell stocks. […] For two sample comparisons a t-test was utilized, and when comparing multiple samples a One-, Two-, or Three-Factor ANOVA followed by Tukey-Kramer post hoc test was utilized depending on the data. For all tests, statistical difference was donated when p < 0.05.
The IΔ2*PSD is expressed in x-axis units (log [M]) as is an IC50 and it represents the first concentration where it is expected to observe a statistical decrease in the measured signal.
Using the formula provided by GraphPad Prism or a straight line for the point-to-point graphs, the X-axis value for point Y was determined. The error is ascribed to this measurement via adding and subtracting the pooled standard deviation (PSD) to/from point Y generating point Y ± PSD. The two new points were then transformed to the X-axis units as was done for point Y creating an asymmetric error in sigmoidal plots. When the error was asymmetric, the larger error value was chosen to err on the conservative side. See S1 Fig for a pictoral explination of the method. The data is presented as IΔ2*PSD ± error.

[3] = tested on: JB6 P+ cells; test: Soft agar assay with competitive adrenergic receptor antagonists; format: cell-based; conditions: Mus musculus, alone, CGP 12177 experiment (S2 Fig)
Protocol: Ten ng/mL EGF was used to promote the anchorage-independent growth of JB6 cells. […] Plates were incubated at 37°C, 5% CO2 for 14 days. Colonies with greater than ten cells were counted manually under a microscope. Antagonists identified in our assays as ineffective at blocking EGF-mediated transformation of JB6 P+ cells yet displaying no or little toxicity were used as competitive antagonists towards carvedilol-mediated prevention of EGF-induced transformation of JB6 P+ cells.

[4] = biological target: β2-AR; conditions: given as negative log value; cited from earlier work
[5] = tested on: β2-AR; set-up: method as in as printed in each cell (43-46, 48-54, 56-58); conditions: as described in the references; ref (43-46, 48-54, 56-58); cited from earlier work

## OC(CNCC(O)C1CCc2cc(F)ccc2O1)C1CCc2cc(F)ccc2O1 (stereo not drawn) [Nebivolol]
[1]; 10 ng/mL EGF, soft agar, read-out: IC50, inhibition of EGF-mediated transformation
  IC50: ≤ 1 µM
[1]; Mus musculus, 10 ng/mL EGF, soft agar, read-out: IC50, inhibition of EGF-mediated transformation
  IC50: 1.09 µM
[1]; Mus musculus, 336 h, 10 ng/mL EGF, 14 days, negative log value, read-out: Soft Agar Assay Log IC50 (converted)
  IC50: 1.1 µM
[1]; Mus musculus, 336 h, 10 ng/mL EGF, 14 days, first concentration with expected statistical decrease, read-out: Soft Agar Assay Log IΔ2*PSD (converted)
  minimal effective concentration: 0.479 µM
[1]; Mus musculus, efficacy of inhibition of colony formation, reported if non-toxic
  Emax: 96.5 ± 7.24%
[2]
  SRB Assay Log IΔ2*PSD: -4.65 ± 0.19 log [M]
[3]
  IC50: 0.347 µM
[4]
  Log Kd at β2-AR: -7.91 ± 0.07 [47]
[5]
  Pharmacological property at β2-AR: Biased agonist/ activates ERK [46]
